According to patent US20230242494A1, “MALONITRILE DERIVATIVES” (Hoffmann-La Roche Inc., priority 2020, published 2023):

target: T1, human cGAS (residues 161-522) (Homo sapiens, UniProt Q8N884); experiment: cGAS Activity Assay—Malachite Green; assay type: biochemical; details: recombinant purified human cGAS 25 nM; 80 μM ATP, 80 μM GTP, 100 nM ISD; 4 hour at RT; phosphate detection by Malachite Green
T1 construct: human cGAS (residues 161-522); made in house
Procedure, shortened: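 Human cGAS (161-522, 25 nM) in 20 mM TRIS pH 7.5, 5 mM MgCl2, 0.01% BSA with 80 μM ATP, 80 μM GTP and 100 nM ISD DNA, 4 h at RT. Pyrophosphate converted by PPase, phosphate read with Malachite Green at 620 nm; IC50 from 4-parameter fit of 16-point series.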

T1 sequence (Q8N884 161-522): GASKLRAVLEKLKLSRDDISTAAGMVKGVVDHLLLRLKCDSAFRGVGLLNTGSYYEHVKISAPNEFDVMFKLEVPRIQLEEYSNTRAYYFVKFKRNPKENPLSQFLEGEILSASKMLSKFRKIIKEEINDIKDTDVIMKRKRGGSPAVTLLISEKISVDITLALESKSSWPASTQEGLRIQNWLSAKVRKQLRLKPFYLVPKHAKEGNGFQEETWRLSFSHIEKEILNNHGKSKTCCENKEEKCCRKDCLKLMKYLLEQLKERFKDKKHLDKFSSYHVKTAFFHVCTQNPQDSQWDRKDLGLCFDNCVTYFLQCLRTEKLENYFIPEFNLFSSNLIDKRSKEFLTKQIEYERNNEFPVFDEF

Row | SMILES | IC50
1 | Cc1oncc1/C(O)=C(\C#N)C(=O)Nc1ccc(C(F)(F)F)c(Cl)c1 [Example 65, (Z)-N-(3-chloro-4-(trifluoromethyl)phenyl)-2-cyano-3-hydroxy-3-(5-methylisoxazol-4-yl)acrylamide] | 1670 nM
2 | COCCS(=O)(=O)c1cnc(NC(=O)/C(C#N)=C(\O)c2cnoc2C)nc1 [Example 110, (Z)-2-cyano-3-hydroxy-N-(5-((2-methoxyethyl)sulfonyl)pyrimidin-2-yl)-3-(5-methylisoxazol-4-yl)acrylamide] | 60 nM
3 | Cc1oncc1/C(O)=C(\C#N)C(=O)Nc1ccc(Cl)c(C(F)(F)F)c1 [Example 15, (Z)-N-(4-chloro-3-(trifluoromethyl)phenyl)-2-cyano-3-hydroxy-3-(5-methylisoxazol-4-yl)acrylamide] | 3560 nM
4 | Cc1oncc1/C(O)=C(\C#N)C(=O)Nc1ncc(OC2CCCCC2)cn1 [Example 73, (Z)-2-cyano-N-(5-(cyclohexyloxy)pyrimidin-2-yl)-3-hydroxy-3-(5-methylisoxazol-4-yl)acrylamide] | 140 nM
5 | Cc1oncc1/C(O)=C(\C#N)C(=O)Nc1ccc(S(C)(=O)=O)cn1 [Example 91, (Z)-2-cyano-3-hydroxy-3-(5-methylisoxazol-4-yl)-N-(5-(methylsulfonyl)pyridin-2-yl)acrylamide] | 100 nM
6 | Cc1oncc1/C(O)=C(\C#N)C(=O)Nc1ccc(Cl)c(Cl)c1 [Example 12, (Z)-2-cyano-N-(3,4-dichlorophenyl)-3-hydroxy-3-(5-methylisoxazol-4-yl)acrylamide] | 2600 nM
7 | Cc1oncc1/C(O)=C(\C#N)C(=O)Nc1ncc(C(=O)N(C)Cc2ccccc2)cn1 [Example 100, N-benzyl-2-[[(Z)-2-cyano-3-hydroxy-3-(5-methylisoxazol-4-yl)prop-enoyl]amino]-N-methyl-2-pyrimidine-5-carboxamide] | 70 nM
8 | Cc1oncc1/C(O)=C(\C#N)C(=O)Nc1ncc(C(=O)N(C)c2ccccc2)c(CCc2ccccc2)n1 [Example 134, (Z)-2-(2-cyano-3-hydroxy-3-(5-methylisoxazol-4-yl)acrylamido)-N-methyl-4-phenethyl-N-phenylpyrimidine-5-carboxamide] | 1710 nM
9 | Cc1oncc1/C(O)=C(\C#N)C(=O)Nc1cccc(C#N)c1 [Example 33, (Z)-2-cyano-N-(3-cyanophenyl)-3-hydroxy-3-(5-methylisoxazol-4-yl)prop-2-enamide] | 310 nM
10 | Cc1oncc1/C(O)=C(\C#N)C(=O)Nc1ncc(S(C)(=O)=O)c(-c2cccc(Cl)c2)n1 [Example 136, (Z)—N-(4-(3-chlorophenyl)-5-(methylsulfonyl)pyrimidin-2-yl)-2-cyano-3-hydroxy-3-(5-methylisoxazol-4-yl)acrylamide] | 70 nM
11 | Cc1oncc1/C(O)=C(\C#N)C(=O)Nc1ncc(C(F)(F)F)cc1Cl [Example 84, (Z)-N-(3-chloro-5-(trifluoromethyl)pyridin-2-yl)-2-cyano-3-hydroxy-3-(5-methylisoxazol-4-yl)acrylamide] | 280 nM
12 | COCCN(C)S(=O)(=O)c1cnc(NC(=O)/C(C#N)=C(\O)c2cnoc2C)nc1 [Example 117, (Z)-2-Cyano-3-hydroxy-N-(5-(N-(2-methoxyethyl)-N-methylsulfamoyl)pyrimidin-2-yl)-3-(5-methylisoxazol-4-yl)acrylamide] | 50 nM
13 | Cc1oncc1/C(O)=C(\C#N)C(=O)Nc1cccc(C(F)(F)F)c1 [Example 5, (Z)-2-cyano-3-hydroxy-3-(5-methylisoxazol-4-yl)-N-[3-(trifluoromethyl)phenyl] prop-2-enamide] | 1500 nM
14 | CCc1oncc1/C(O)=C(\C#N)C(=O)Nc1ccc(C(F)(F)F)cc1 [Example 141, (Z)-2-cyano-3-(5-ethylisoxazol-4-yl)-3-hydroxy-N-(4-(trifluoromethyl)phenyl)acrylamide] | 6450 nM
15 | N#C/C(C(=O)Nc1ccc(C(F)(F)F)cc1)=C(/O)c1cnoc1 [Example 142, (Z)-2-cyano-3-hydroxy-3-(isoxazol-4-yl)-N-(4-(trifluoromethyl)phenyl)acrylamide] | 5190 nM
16 | Cc1oncc1/C(O)=C(\C#N)C(=O)Nc1ncc(C(=O)N(C)Cc2ccccc2)c(-c2ccccc2)n1 [Example 132, (Z)—N-Benzyl-2-(2-cyano-3-hydroxy-3-(5-methylisoxazol-4-yl)acrylamido)-N-methyl-4-phenylpyrimidine-5-carboxamide] | 190 nM

More lines, now with the values ahead:

Row | IC50 | SMILES
17 | 680 nM | Cc1oncc1/C(O)=C(\C#N)C(=O)Nc1ccc(C(=O)NCc2ccccc2)cc1 [Example 72, (Z)-N-benzyl-4-(2-cyano-3-hydroxy-3-(5-methylisoxazol-4-yl)acrylamido)benzamide]
18 | 90 nM | Cc1oncc1/C(O)=C(\C#N)C(=O)Nc1ncc(C(=O)N(C)c2ccccc2)cn1 [Example 99, 2-[[(Z)-2-cyano-3-hydroxy-3-(5-methylisoxazol-4-yl)prop-2-enoyl]amino]-N-methyl-N-phenyl-pyrimidine-5-carboxamide]
19 | 2020 nM | Cc1oncc1/C(O)=C(\C#N)C(=O)Nc1ccc(Sc2ccccc2)cc1 [Example 55, (Z)-2-cyano-3-hydroxy-3-(5-methylisoxazol-4-yl)-N-(4-(phenylthio)phenyl) acrylamide]
20 | 670 nM | CSc1ccc(NC(=O)/C(C#N)=C(\O)c2cnoc2C)cc1 [Example 14, (Z)-2-cyano-3-hydroxy-3-(5-methylisoxazol-4-yl)-N-(4-(methylthio)phenyl) acrylamide]
21 | 950 nM | Cc1oncc1/C(O)=C(\C#N)C(=O)Nc1ccc(C(F)(F)F)cc1 [Example 4, (Z)-2-cyano-3-hydroxy-3-(5-methylisoxazol-4-yl)-N-(4-(trifluoromethyl)phenyl) acrylamide]
22 | 120 nM | Cc1oncc1/C(O)=C(\C#N)C(=O)Nc1ccc(S(=N)(=O)c2ccccc2)cc1 (stereo not shown) [Example 114, (Z)-2-cyano-3-hydroxy-3-(5-methylisoxazol-4-yl)-N-(4-(phenylsulfonimidoyl)phenyl)acrylamide]
23 | 200 nM | Cc1oncc1/C(O)=C(\C#N)C(=O)Nc1ccc(S(=O)(=O)N2CCOCC2)cc1 [Example 47, (Z)-2-cyano-3-hydroxy-3-(5-methylisoxazol-4-yl)-N-(4-(morpholinosulfonyl)phenyl)acrylamide]
24 | 1740 nM | Cc1oncc1/C(O)=C(\C#N)C(=O)Nc1cccc(Oc2ccccc2)c1 [Example 52, (Z)-2-cyano-3-hydroxy-3-(5-methylisoxazol-4-yl)-N-(3-phenoxyphenyl)acrylamide]
25 | 240 nM | Cc1oncc1/C(O)=C(\C#N)C(=O)Nc1ccc(C(N)=O)cc1 [Example 44, 4-[[(Z)-2-cyano-3-hydroxy-3-(5-methylisoxazol-4-yl)prop-2-enoyl]amino]benzamide]
26 | 60 nM | Cc1oncc1/C(O)=C(\C#N)C(=O)Nc1ncc(S(=O)(=O)c2ccccc2)c(-c2cccc(F)c2)n1 [Example 139, (Z)-2-cyano-N-(4-(3-fluorophenyl)-5-(phenylsulfonyl)pyrimidin-2-yl)-3-hydroxy-3-(5-methylisoxazol-4-yl)acrylamide]
27 | 270 nM | Cc1oncc1/C(O)=C(\C#N)C(=O)Nc1ccc(S(=O)(=O)c2ccc(Cl)cc2)cc1 [Example 16, (Z)-N-(4-((4-chlorophenyl)sulfonyl)phenyl)-2-cyano-3-hydroxy-3-(5-methylisoxazol-4-yl)acrylamide]
28 | 160 nM | Cc1oncc1/C(O)=C(\C#N)C(=O)Nc1ccc(S(=O)(=O)c2ccccc2)cc1 [Example 30, (Z)-2-cyano-3-hydroxy-3-(5-methylisoxazol-4-yl)-N-(4-(phenylsulfonyl)phenyl) acrylamide]
29 | 1510 nM | Cc1oncc1/C(O)=C(\C#N)C(=O)Nc1cccc(S(C)(=O)=O)c1 [Example 26, (Z)-2-cyano-3-hydroxy-3-(5-methylisoxazol-4-yl)-N-(3-(methylsulfonyl)phenyl) acrylamide]
30 | 90 nM | Cc1oncc1/C(O)=C(\C#N)C(=O)Nc1ccc(S(=O)(=O)Nc2ncccn2)cc1 [Example 45, (Z)-2-cyano-3-hydroxy-3-(5-methylisoxazol-4-yl)-N-[4-(pyrimidin-2-ylsulfamoyl)phenyl]prop-2-enamide]
31 | 3460 nM | Cc1oncc1/C(O)=C(\C#N)C(=O)Nc1ccc(Oc2ccc(Cl)cc2)cc1 [Example 63, (Z)-N-(4-(4-chlorophenoxy)phenyl)-2-cyano-3-hydroxy-3-(5-methylisoxazol-4-yl)acrylamide]
32 | 1810 nM | Cc1cc(NC(=O)/C(C#N)=C(\O)c2cnoc2C)ccc1Br [Example 23, (Z)-N-(4-bromo-3-methylphenyl)-2-cyano-3-hydroxy-3-(5-methylisoxazol-4-yl)acrylamide]
33 | 490 nM | COc1ccc(S(=O)(=O)c2ccc(NC(=O)/C(C#N)=C(\O)c3cnoc3C)cc2)cc1 [Example 39, (Z)-2-cyano-3-hydroxy-N-(4-((4-methoxyphenyl)sulfonyl)phenyl)-3-(5-methylisoxazol-4-yl)acrylamide]
34 | 330 nM | Cc1oncc1/C(O)=C(\C#N)C(=O)Nc1cccc(C(=O)O)c1 [Example 144, 3-[[(Z)-2-Cyano-3-hydroxy-3-(5-methylisoxazol-4-yl)prop-2-enoyl]amino]benzoic acid]
35 | 1290 nM | Cc1oncc1/C(O)=C(\C#N)C(=O)Nc1ccc(OC(F)(F)F)cc1 [Example 11, (Z)-2-cyano-3-hydroxy-3-(5-methylisoxazol-4-yl)-N-(4-(trifluoromethoxy)phenyl) acrylamide]
36 | 150 nM | Cc1oncc1/C(O)=C(\C#N)C(=O)Nc1ncc(CCc2ccccc2)cn1 [Example 102, (Z)-2-cyano-3-hydroxy-3-(5-methylisoxazol-4-yl)-N-(5-phenethylpyrimidin-2-yl)acrylamide]
37 | 200 nM | Cc1oncc1/C(O)=C(\C#N)C(=O)Nc1ncc(S(C)(=O)=O)c(CCc2ccccc2)n1 [Example 138, (Z)-2-cyano-3-hydroxy-3-(5-methylisoxazol-4-yl)-N-(5-(methylsulfonyl)-4-phenethylpyrimidin-2-yl)acrylamide]
